From patent publication US20250032631A1, “ANTI-SEZ6 ANTIBODY DRUG CONJUGATES” (AbbVie Inc., priority 2022, published 2025)
pEC50, pIC50: −log10 of the molar value.

Experiments:
Format in all cases: cell-based
NCI-H146 = assay: SCLC cell viability assay (CellTiter-Glo), NCI-H146; conditions: Homo sapiens, 72 h; NCI-H146, 3 days; read-out: IC50, 50% cell growth inhibition
Experimental: (§1) SCLC cell lines NCI-H526 (“H526”), NCI-H524 (“H524”), NCI-H146 (“H146”), NCI-H1963 (“H1963”) and SW-1271 were obtained from the American Type Culture Collection (ATCC). COR-L95 cells were obtained from Millipore Sigma (#96020733). SBC-5 cells were obtained from the Japanese Collection of Research Bioresources Cell Bank (JCRB).
(§2) SCLC cell lines (shown in Table 2, column 1) were plated in white 384-well plates (Corning® 3765) at 1,000-2,000 cells/30 μl RPMI-1640 base media containing 10% heat-inactivated FBS (fetal bovine serum). Cell plates were incubated overnight at 37° C. in 5% CO2. Using a Tecan D300e Digital Dispenser, a dose response using a stock concentration of ADC or solution containing Example 1G and DMSO (dimethyl sulfoxide) was applied to the cells on day 0 and incubated for an additional 10 days (ADCs) or 3 days (Example 1G) at 37°° C. in 5% CO2. Samples were run in duplicate. Cell viability was assessed with the CellTiter-Glo™ Luminescent Cell Viability Assay (Promega, #G7570) according to the manufacturer's instructions, with the exception that the plates were shaken for 30 minutes prior to reading. Luminescence was read on the BioTek Synergy Neo2, and data was analyzed using GraphPad Prism software.

[1] = tested on: Calu-6 cells (lung adenocarcinoma); assay: Cell proliferation (CellTiter-Glo luminescence), Calu-6; conditions: Homo sapiens, Calu-6, read-out: EC50, TOP1i compound potency, Calu-6
Experimental: The effect of TOP1i drugs on cell viability was assessed by monitoring ATP presence for metabolically active cells. Proliferation of Calu-6 cells (lung adenocarcinoma) and A375 cells (malignant melanoma) were quantified using CellTiter-Glo® luminescence.

[2] = tested on: A375 cells (malignant melanoma); assay: Cell proliferation (CellTiter-Glo luminescence), A375; conditions: Homo sapiens, A-375, read-out: EC50, TOP1i compound potency, A375
Excerpt: Proliferation of Calu-6 cells (lung adenocarcinoma) and A375 cells (malignant melanoma) were quantified using CellTiter-Glo® luminescence.

SCLC cell lines = assay: SCLC cell viability assay, summary over the cell line panel; conditions: all SCLC cell lines tested, TOP1 inhibitor alone
Experimental: as §1
as §2, with “software. […]” for “software.”

SW-1271 = assay: SCLC cell viability assay (CellTiter-Glo), SW-1271; conditions: SW1271, 72 h; SW-1271, 3 days; read-out: IC50, 50% cell growth inhibition
Experimental: as §1, §2

NCI-H524 = assay: SCLC cell viability assay (CellTiter-Glo), NCI-H524; conditions: Homo sapiens, 72 h; NCI-H524, 3 days; read-out: IC50, 50% cell growth inhibition
Experimental: as §1, §2

COR-L95 = assay: SCLC cell viability assay (CellTiter-Glo), COR-L95; conditions: 72 h; COR-L95, 3 days; read-out: IC50, 50% cell growth inhibition
Experimental: as §1, §2

SBC-5 = assay: SCLC cell viability assay (CellTiter-Glo), SBC-5; conditions: Homo sapiens, 72 h; SBC-5, 3 days; read-out: IC50, 50% cell growth inhibition
Experimental: as §1, §2

NCI-H1963 = assay: SCLC cell viability assay (CellTiter-Glo), NCI-H1963; conditions: Homo sapiens, 72 h; NCI-H1963, 3 days; read-out: IC50, 50% cell growth inhibition
Experimental: as §1, §2

NCI-H526 = assay: SCLC cell viability assay (CellTiter-Glo), NCI-H526; conditions: Homo sapiens, 72 h; NCI-H526, 3 days; read-out: IC50, 50% cell growth inhibition
Experimental: as §1, §2

In the case of `CC[C@@]1(O)C(=O)OCc2c1cc1n(c2=O)Cc2c-1nc1cc3c(cc1c2C12CC(N)(C1)C2)OCO3` [Example 1G, (7S)-14-(3-aminobicyclo[1.1.1]pentan-1-yl)-7-ethyl-7-hydroxy-2H,10H-[1,3]dioxolo[4,5-g]pyrano[3′,4′:6,7]indolizino[1,2-b]quinoline-8,11(7H,13H)-dione], the pIC50 (NCI-H146) was 7.67, the pEC50 [1] was 9.24 and the pEC50 [2] was 9.30. For the same compound, the “IC50 in all cell lines” value (SCLC cell lines) was “sub-to low-nM”, the pIC50 (SW-1271) was 8.60 and the pIC50 (NCI-H524) was 8.77. For the same compound, the pIC50 (COR-L95) was 8.24, the pIC50 (SBC-5) was 8.90 and the pIC50 (NCI-H1963) was 8.20. It also gave a pIC50 (NCI-H526) of 9.70.
